Reference: patent US6242482A, “Prostaglandin compounds and derivatives thereof, compositions containing the same and method of using the same for the treatment of congestive heart failure” (priority 2000, dated 2001)
“And” between values parts separate entries of the source, which are not always exact repeats. Equal entries are not always repeated. Where two headings read alike, the source gives them in different places.

Legend:
[1] = tested on: Human Platelet Aggregation (collagen-induced); assay: Anti-aggregatory response, 1 min incubation with PRP, collagen-induced (Example 4); type: cell-based; details: 1 min with PRP; for Platelet Aggregation (mean): collagen 1 μg/ml
Method: (§1) Blood from healthy human volunteers who had not taken any medicine for at least 14 days was collected by venopuncture into 3.15% (w/v) tri-sodium citrate (9:1 v/v). The blood was centrifuged at 800 g for 15 minutes to produce PRP. The PRP was further centrifuged at 12,000 g for 1 minute to produce PPP.
(§2) Platelet aggregation was measured using a dual channel Payton aggregometer calibrated with PRP (0%) and PPP (100%) with respect to the degree of light transmission. Aliquots of PRP (500 μl) were added to siliconized cuvettes, stirred (1000 revs/min) and warmed to 37° C. The platelets were incubated for 1 minute to establish a stable baseline prior to testing. A submaximal concentration of the aggregating agent collagen (1 μg/ml) was added to the PRP and the platelet aggregation was monitored as the increase in light transmission observed over a 4 minute period.
The percent inhibition of the platelet aggregation was calculated using the peak increase in light transmission observed over the 4 minute period following the addition of collagen, as compared to that of the control. This experiment was repeated using PRP from at least three human volunteers.

[2] = tested on: Human Platelet Aggregation (collagen-induced); assay: Anti-aggregatory response after incubation with aqueous vehicle (acetate buffer) (Example 4); type: cell-based
Method: as §1, §2
(§3) After the incubation period, a 50 μl aliquot of the aqueous vehicle with the corresponding sample compound was added to fresh PRP (450 μl) for determination of anti-aggregatory activity following challenge with collagen. This experiment was repeated using PPP from at least three human volunteers. […] The data in both Tables 2 and 3 are shown as the mean and the standard error of n number of donors.

[3] = tested on: Human Platelet Aggregation (collagen-induced); assay: Anti-aggregatory response after incubation with human PPP (Example 4); type: cell-based
Method: as §1, §2, §3

[4] = tested on: Human Platelet Aggregation (collagen-induced); assay: Anti-aggregatory activity, 1 min incubation with PRP, collagen-induced (Example 8); type: cell-based; details: 1 minute with PRP
Method: as §1, with “PPP. A total of 12 volunteers donated blood for the study.” for “PPP.”
as §2, with “studied” for “measured”, “investigation.” for “testing.”
The percentage inhibition of the platelet aggregation was calculated using the peak increase in light transmission observed over the 4 minute period following addition of collagen, as compared to that of control. This experiment was repeated using PRP from at least three human volunteers for each compound under study.

[5] = tested on: Human Platelet Aggregation (collagen-induced); assay: Anti-aggregatory response after incubation with PPP (Example 8); type: cell-based; details: up to 4 hours at 37° C
Method: as §1, with “PPP. A total of 12 volunteers donated blood for the study.” for “PPP.”
as §2, with “studied” for “measured”, “investigation.” for “testing.”
(§4) After the incubation period, an aliquot of the PPP or aqueous vehicle (50 μl) was added to fresh PRP (450 μl) for determination of anti-platelet activity. This experiment was repeated using PPP from at least three human volunteers for each compound.

[6] = tested on: Human Platelet Aggregation (collagen-induced); assay: Anti-aggregatory response after incubation with aqueous vehicle (Example 8); type: cell-based; details: up to 4 hours at 37° C
Method: as §1, with “PPP. A total of 12 volunteers donated blood for the study.” for “PPP.”
as §2, with “studied” for “measured”, “investigation.” for “testing.”
as §4

[7] = tested on: mean arterial pressure and heart rate of anesthetized rats; assay: Systemic hemodynamic effects, intravenous, anesthetized rats (Example 9); type: in vivo, rat (male Wistar)
Method: Among other effects, lowering of the blood pressure inside the blood vessels is beneficial for the treatment of congestive heart failure by reducing the vascular resistance of the blood flow which substantially reduces the work load imposed on the heart. […] This study involved the use of male Wistar rats anaesthetized with thiopentone sodium ([…]®, 120 mg kg^-1 i.p.). The trachea was cannulated to facilitate breathing.

[8] = tested on: mean arterial pressure and heart rate of anesthetized rats; details: for Time of Δmax (superscript) / t1/2 / Δmax (Mean Arterial Pressure): Table 4; for Mean Arterial Pressure: 0,1,5,10,15,30,60,120,180,240,360 min
Method: Male Wistar rats (250-330 g) were anesthetized with thiopentone sodium (INTRAVAL®, 120 mg/kg i.p.). The trachea was cannulated to facilitate respiration. The right carotid artery was cannulated and connected to a pressure transducer (Spectramed P23XL), for the measurement of mean arterial pressure (MAP) and heart rate (HR) which were continuously recorded on a 4-channel Grass 7D polygraph recorder (Grass, Mass., U.S.A.). Body temperature was maintained at 37±1°C. by means of a rectal probe thermometer attached to a homeothermic blanket control unit (Harvard Apparatus Ltd.).

[9] = tested on: U44069-induced pulmonary hypertension; assay: Effects on pulmonary vascular hypertension in sheep in vivo (Example 16); details: FIG. 5
Text: Each sheep was monitored for measurement of pulmonary arterial pressure (PPA), left atrial pressure (PLA), systemic arterial pressure (PSA), cardiac output (CO), and heart rate (HR). Plasma samples were taken from the sheep subjects to measure drug levels within the blood throughout the experiment. The experiment began upon intravenously infusing a known pulmonary arterial hypertension inducer in a customary manner. The rate of inducement was adjusted to cause the pulmonary vascular resistance (PVR) to increase 3 to 4 times that of the initial baseline PVR. PVR is calculated as the difference between PPA and PLA, divided by the CO. After a stabilization period, a sample of a present prostaglandin compound was administered via a surgically prepared tracheotomy using a MEDICATOR® aerosol drug delivery system (Healthline Medical Inc., Baldwin Park, Calif.), or via intravenous infusion.

CCCCC[C@H](O)CC[C@@H]1[C@H]2Cc3cccc(OCC(=O)O)c3C[C@H]2C[C@H]1O [Compound X]
Platelet Aggregation (mean) ([1]; 1 ng/ml final): 101 % of Control
Platelet Aggregation (mean) ([1]; 3 ng/ml final): 98 % of Control
Platelet Aggregation (mean) ([1]; 10 ng/ml final): 60 % of Control
Platelet Aggregation (mean) ([1]; 30 ng/ml final): 1 % of Control
Platelet Aggregation (mean) ([1]; 100 ng/ml final): 1 % of Control
inhibition of aggregation response at highest concentrations ([1]; Compound X 30 and 100 ng/ml, Compound 1 3 mg/ml, Compound 3 10 mg/ml): completely inhibited the aggregation response
concentration inhibiting aggregation by 50% (ID50) ([1]; collagen): 0.02 µg/mL
inhibition of platelet aggregation, concentration dependence ([1]; collagen): concentration-dependentinhibition of collagen-induced platelet aggregation
Platelet Aggregation (mean) ([2]; 3 ng/ml final, 1 Hour in acetate buffer): 107 % of Control
Platelet Aggregation (mean) ([2]; 3 ng/ml final, 4 Hours in acetate buffer): 94 % of Control
Platelet Aggregation (mean) ([2]; 3 ng/ml final, 15 Minutes in acetate buffer): 98 % of Control
Platelet Aggregation (mean) ([2]; 30 ng/ml final, 1 Hour in acetate buffer): 8 % of Control
Platelet Aggregation (mean) ([2]; 30 ng/ml final, 4 Hours in acetate buffer): 8 % of Control
Platelet Aggregation (mean) ([2]; 30 ng/ml final, 15 Minutes in acetate buffer): 3 % of Control
effect of incubation with aqueous vehicle on anti-platelet activity ([2]; 15 minutes, 1 hour and 4 hours): no significant effect on the degree of anti-platelet activity
Platelet Aggregation (mean) ([3]; 3 ng/ml final, 1 Hour in human PPP): 100 % of Control
Platelet Aggregation (mean) ([3]; 3 ng/ml final, 4 Hours in human PPP): 91 % of Control
Platelet Aggregation (mean) ([3]; 3 ng/ml final, 15 Minutes in human PPP): 101 % of Control
Platelet Aggregation (mean) ([3]; 30 ng/ml final, 1 Hour in human PPP): 1 % of Control
Platelet Aggregation (mean) ([3]; 30 ng/ml final, 4 Hours in human PPP): 1 % of Control
Platelet Aggregation (mean) ([3]; 30 ng/ml final, 15 Minutes in human PPP): 1 % of Control
effect of incubation with PPP on anti-platelet activity ([3]; 15 minutes, 1 hour and 4 hours): no significant effect on the anti-platelet activity
concentration inhibiting aggregation by 50% (IC50) [4]: 0.019 ± 0.001 µg/mL
inhibition of platelet aggregation, concentration dependence [4]: concentration dependent inhibition of collagen-induced platelet aggregation
inhibition of aggregation response at highest concentrations ([4]; X 30 and 100 ng/ml, 4 300 μg/ml, 6 3 mg/ml, 7 10 mg/ml): completely inhibited the aggregation response
effect of incubation with PPP on anti-platelet activity [5]: not affected by incubation
effect of incubation with aqueous vehicle/saline/buffer on anti-platelet activity [6]: not affected by incubation
effective life of the fall in MAP ([7]; comparison of Compound 4 with Compound X (1 mg/kg i.v.)): 30 min
fall in MAP ([7]; i.v., Compound X 1 mg/kg, Compound 4 1-10 mg/kg, others 3-30 mg/kg): similar, maximal fall in MAP to the highest dose of Compound 4
Time of Δmax (superscript) ([8]; 0.1 mg/kg s.c.): 15 min
t1/2 ([8]; 0.1 mg/kg s.c.): 2.75 h
Δmax (Mean Arterial Pressure) ([8]; 0.1 mg/kg s.c.): 46 ± 5 mm Hg
Mean Arterial Pressure ([8]; 0.3 mg/kg s.c.): 101 ± 12 mm Hg
Time of Δmax (superscript) ([8]; 0.3 mg/kg s.c.): 10 min
t1/2 ([8]; 0.3 mg/kg s.c.): 1.33 to 1.83 h
Δmax (Mean Arterial Pressure) ([8]; 0.3 mg/kg s.c.): 52 mm Hg
maximum fall in MAP ([8]; 1 mg/kg s.c.): about 70 mm Hg
time of maximum fall in MAP ([8]; 1 mg/kg s.c.): 15 min
Mean Arterial Pressure ([8]; 1 mg/kg s.c.): 88 ± 5 mm Hg and 98 ± 6 mm Hg
Time of Δmax (superscript) ([8]; 1 mg/kg s.c.): 15 min
t1/2 ([8]; 1 mg/kg s.c.): 2.25 to 4.83 h
Δmax (Mean Arterial Pressure) ([8]; 1 mg/kg s.c.): 71 ± 8 mm Hg
heart rate / tachycardia ([8]; rat, in vivo, sc): dose-dependent increase in heart rate
fall in MAP ([8]; s.c., Compound 4 1-10 mg/kg, Compound X 0.1-1 mg/kg, Compounds 7 and 8 3-30 mg/kg): rapid dose-related fall in MAP
PPA-PLA before administration (normalized) ([9]; 1 μg/kg aerosol over 15 minutes): about 11.25 cmH2 O
PPA-PLA after administration (normalized) ([9]; 1 μg/kg aerosol, 10 minutes after termination): about 5 cmH2 O
